Assay results taken from patent publication US20250268884A1, “Deuterated Domperidone for Treating Gastroparesis” (CinDome Pharma, Inc., priority 2022, published 2025).

Test system: adults with idiopathic or diabetic gastroparesis
Assay: PAGI-SYM questionnaire total and subscale scores, Phase 2a
Assay type: in vivo, human
Conditions: mean, Safety Population
Procedure: Subjects were Evaluated as Follows: • Days −28 to −11: Screening procedures were performed. The ANMS GCSI-DD questionnaire was completed daily for at least 14 days prior to randomization (Day 1); • Days −10 to −3: The ANMS GCSI-DD questionnaire was completed daily. A GEBT was performed on a single day within this window, with breath samples obtained twice prior to consumption of a standardized, carbon-13 (^13C)-enriched meal and then at 45, 90, 120, 150, 180, and 240 minutes after meal consumption after an 8-hour fast. […] On Day 14 (±2 days), the PAGI-SYM and Clinical Grading Assessment questionnaires were completed prior to the final dose of study drug. • A GEBT was administered 30 minutes after study drug administration on Day 14 (±2 days). Breath samples were obtained twice prior to ^13C-enriched meal consumption and then at 45, 90, 120, 150, 180, and 240 minutes after meal consumption after an 8-hour fast. If a subject withdrew from the study prior to the Day 14 (±2 days) GEBT, attempts should have been made to perform a GEBT on the last day of study drug administration. Clinical Grading Assessment Scales were also performed.
The PAGI-SYM includes 6 subscales: heartburn/regurgitation, fullness/early satiety, nausea/vomiting, bloating, upper abdominal pain, and lower abdominal pain.

With `[2H]c1c([2H])c([2H])c2c([nH]c(=O)n2CCCN2CCC(n3c(=O)[nH]c4cc(Cl)ccc43)CC2)c1[2H]` [Deudomperidone, 1-{3-[4-(5-chloro-2-oxo-2,3-dihydro-1H-1,3-benzodiazol-1-yl)piperidin-1yl]propyl}-2,3-dihydro(4,5,6,7-D4)-1H-1,3-benzodiazol-2-one] the “PAGI-SYM bloating subscale score, Baseline” value (5 mg BID) was 3.67, the “PAGI-SYM bloating subscale score, Change from baseline to Day 14” value (shortened to “PAGI-SYM bloating subscale score, Change”) (5 mg BID) was −1.00 and the “PAGI-SYM bloating subscale score, Day 14” value (5 mg BID) was 2.67. For the same compound, the “PAGI-SYM bloating subscale score, Percent change from baseline to Day 14” value (5 mg BID) was −30.16%, the “PAGI-SYM fullness/early satiety subscale score, Baseline” value (5 mg BID) was 3.89 and the “PAGI-SYM fullness/early satiety subscale score, Change from baseline to Day 14” value (5 mg BID) was −1.53. For the same compound, the “PAGI-SYM fullness/early satiety subscale score, Day 14” value (5 mg BID) was 2.36, the “PAGI-SYM fullness/early satiety subscale score, Percent change from baseline to Day 14” value (5 mg BID) was −38.04% and the “PAGI-SYM heartburn/regurgitation subscale score, Baseline” value (5 mg BID) was 3.63. For the same compound, the “PAGI-SYM heartburn/regurgitation subscale score, Change from baseline to Day 14” value (5 mg BID) was −1.79, the “PAGI-SYM heartburn/regurgitation subscale score, Day 14” value (5 mg BID) was 1.84 and the “PAGI-SYM heartburn/regurgitation subscale score, Percent change from baseline to Day 14” value (5 mg BID) was −50.23%. For the same compound, the “PAGI-SYM lower abdominal pain subscale score, Baseline” value (5 mg BID) was 3.11, the “PAGI-SYM lower abdominal pain subscale score, Change from baseline to Day 14” value (5 mg BID) was −1.67 and the “PAGI-SYM lower abdominal pain subscale score, Day 14” value (5 mg BID) was 1.44. For the same compound, the “PAGI-SYM lower abdominal pain subscale score, Percent change from baseline to Day 14” value (5 mg BID) was −52.08%, the “PAGI-SYM nausea/vomiting subscale score, Baseline” value (5 mg BID) was 2.74 and the “PAGI-SYM nausea/vomiting subscale score, Change from baseline to Day 14” value (5 mg BID) was −1.00. For the same compound, the “PAGI-SYM nausea/vomiting subscale score, Day 14” value (5 mg BID) was 1.74, the “PAGI-SYM nausea/vomiting subscale score, Percent change from baseline to Day 14” value (5 mg BID) was −39.58% and the “PAGI-SYM total score, Baseline” value (5 mg BID) was 3.37. The “PAGI-SYM total score, Change from baseline to Day 14” value (5 mg BID) was −1.35, the “PAGI-SYM total score, Day 14” value (5 mg BID) was 2.02 and the “PAGI-SYM total score, Percent change from baseline to Day 14” value (5 mg BID) was −40.13%. For the same compound, the “PAGI-SYM upper abdominal pain subscale score, Baseline” value (5 mg BID) was 3.17, the “PAGI-SYM upper abdominal pain subscale score, Change from baseline to Day 14” value (5 mg BID) was −1.11 and the “PAGI-SYM upper abdominal pain subscale score, Day 14” value (5 mg BID) was 2.06. The “PAGI-SYM upper abdominal pain subscale score, Percent change from baseline to Day 14” value (5 mg BID) was −37.28%, the “PAGI-SYM bloating subscale score, Baseline” value (10 mg BID) was 3.84 and the “PAGI-SYM bloating subscale score, Change” value (10 mg BID) was −1.17. The “PAGI-SYM bloating subscale score, Day 14” value (10 mg BID) was 2.65, the “PAGI-SYM bloating subscale score, Percent change from baseline to Day 14” value (10 mg BID) was −26.78% and the “PAGI-SYM fullness/early satiety subscale score, Baseline” value (10 mg BID) was 3.60. For the same compound, the “PAGI-SYM fullness/early satiety subscale score, Change from baseline to Day 14” value (10 mg BID) was −0.88, the “PAGI-SYM fullness/early satiety subscale score, Day 14” value (10 mg BID) was 2.71 and the “PAGI-SYM fullness/early satiety subscale score, Percent change from baseline to Day 14” value (10 mg BID) was −24.08%. The “PAGI-SYM heartburn/regurgitation subscale score, Baseline” value (10 mg BID) was 2.67, the “PAGI-SYM heartburn/regurgitation subscale score, Change from baseline to Day 14” value (10 mg BID) was −1.07 and the “PAGI-SYM heartburn/regurgitation subscale score, Day 14” value (10 mg BID) was 1.62. For the same compound, the “PAGI-SYM heartburn/regurgitation subscale score, Percent change from baseline to Day 14” value (10 mg BID) was −25.45%, the “PAGI-SYM lower abdominal pain subscale score, Baseline” value (10 mg BID) was 2.02 and the “PAGI-SYM lower abdominal pain subscale score, Change from baseline to Day 14” value (10 mg BID) was −0.79. The “PAGI-SYM lower abdominal pain subscale score, Day 14” value (10 mg BID) was 1.25, the “PAGI-SYM lower abdominal pain subscale score, Percent change from baseline to Day 14” value (10 mg BID) was −38.38% and the “PAGI-SYM nausea/vomiting subscale score, Baseline” value (10 mg BID) was 2.75. For the same compound, the “PAGI-SYM nausea/vomiting subscale score, Change from baseline to Day 14” value (10 mg BID) was −0.93, the “PAGI-SYM nausea/vomiting subscale score, Day 14” value (10 mg BID) was 1.78 and the “PAGI-SYM nausea/vomiting subscale score, Percent change from baseline to Day 14” value (10 mg BID) was −30.39%. The “PAGI-SYM total score, Baseline” value (10 mg BID) was 2.94, the “PAGI-SYM total score, Change from baseline to Day 14” value (10 mg BID) was −0.97 and the “PAGI-SYM total score, Day 14” value (10 mg BID) was 1.97. The “PAGI-SYM total score, Percent change from baseline to Day 14” value (10 mg BID) was −31.18%, the “PAGI-SYM upper abdominal pain subscale score, Baseline” value (10 mg BID) was 2.74 and the “PAGI-SYM upper abdominal pain subscale score, Change from baseline to Day 14” value (10 mg BID) was −0.97. The “PAGI-SYM upper abdominal pain subscale score, Day 14” value (10 mg BID) was 1.82, the “PAGI-SYM upper abdominal pain subscale score, Percent change from baseline to Day 14” value (10 mg BID) was −24.47% and the “PAGI-SYM bloating subscale score, Baseline” value (20 mg QD) was 3.57. For the same compound, the “PAGI-SYM bloating subscale score, Change” value (20 mg QD) was −1.10.
